Source: patent US20080031868A1, “HUMAN LYSOZYME MEDICINE, ITS MANUFACTURING METHOD AND APPLICATION THEREOF” (priority 2005, published 2008)
Converted amounts (≈) assume the structure as drawn.

Key:
[1] = system: Staphylococcus aureus MRSABAA-42; experiment: Bronchus pneumonia mice infected by Staphylococcus aureus MRSA BAA-42, treated by atomization inspiring; type: in vivo; settings: mice lung; atomization inspired 6.0; the 1th day
Text: A, atomization sucks gene recombinant Human Lysozyme (HLZ) cured bronchus pneumonia mice infected by Staphylococcus aureus MRSABAA-42
Choose the test lawn, after washing with the physiological saline, correcting by McB tubes for comparative tests bacterium solution concentration 2#MCF, turbidity of 2.7×10^11 CFU/ml, diluted with physiological saline separately into 10^−1, 10^−2, 10^−3 bacterium solution, drip the nose to infect for mice respectively (anaesthetize the mice with the pentobarbital first, 30 mg/kg, ip.), 0.05 ml a mouse. Observed the mice body changing, and killed parts of mice after infecting 48 h, fetch the whole lung to tissue homogenate, 10 times diluted by physiological saline, draw 0.1 m1 to MH agar plate surface, to cultivate last night 35° C., Gram staining, test under microscope, and count plate. At the same time recorded the number of death mice, and collect some mice tracheas, bronchus, lung tissue and do pathology tissue observing.
It is called medial lethal dose (LD50) that bacterium amount caused mice appearing lung pharmacology change and 50% died. LD50was used as experimental treatment amount.
Infected mice is divided into 10 groups at random according to the weight, 30 every groups.
Designed dosage: The concentration of recombinant human lysozyme medicine was 15000 u/ml as in clinical atomization therapy. Its dose was 15000 u per time and administrated one time everyday, I.e 0.5 mg per time everyday. The dose was 1.3×10-3 mg a mice (counted by weight of 20 g). […] To ensure the breathing amount of lysozyme, the breathing time were extended for 0.5 hour. Based on 0.5 mg/ml, the concentration of 0.25 mg/ml, 1.0 mg/ml and 2.0 mg/ml were set respectively as treatment dose.
The same group mice were put into the ultrasonic atomizer and then treated with human lysozyme atomized in the compression sprayer (PARL.BOY), twice a day, 5 days in succession.
Every group, from the infected day to calculae, the animal incidence and death were recorded 14 days in succession. Every group collected 2-3 mice and killed them the 14th day after infecting, did bacteriology detection after lung homogenate, killed surplus animal to fetch the trachea, bronchus, fixed in 10% of the formaldehyde solution after weighing, did pathology check.
The bacterial culture: A part of mice were killed after infecting 24 h, fetched the whole lung weighting, added 2 ml degerming PBS solution 10 times diluted, draw 0.1 mL to MH agar plate surface, to cultivate last night 35° C., counted in the cultivation plateform of 30-300 CF, if the two close level tissue fluid is 30-300 CFU, counted the low density (make 3 plateforms at the same time each tissue fluid, calculate the average). Collected 2 mice to do bacterial culture in every group at random in 5, 7, 14 days after administration.
Pathology detection: After dissecting the mice, observed the trachea, bronchus, syncretio of lung, chest wall and membrana pleuralis, the volume of lung and size of lung focus, the lung surface was congested, hydroncus, consolidation and atelectasis by the naked eye. Took out the trachea, bronchus and the whole lung tissue to fixed with 10% of the formaldehyde solution, draw materials.

[2] = system: Staphylococcus aureus MRSABAA-42; experiment: as above; type: in vivo; settings: for accumulative survival number: 30 mice; for accumulative survival number / survival rate (%): 14 days; for survival elevation rate (%): versus infected model group; for bacterial number: mice lung
[3] = 0.75 mg/ml atomization inspired

CC[C@H]1OC(=O)[C@H](C)[C@@H](O[C@H]2C[C@@](C)(OC)[C@@H](O)[C@H](C)O2)[C@H](C)[C@@H](O[C@@H]2O[C@H](C)C[C@H](N(C)C)[C@H]2O)[C@](C)(OC)C[C@@H](C)C(=O)[C@H](C)[C@@H](O)[C@]1(C)O [Clarithromycin, reference compound]
bacterial number [1]: 241.9 ± 16.62 CFU/mL
average survival day (day, x ± s) [2, 3]: 7.67 ± 4.01 days
accumulative survival number [2, 3]: 5
survival rate (%) [2, 3]: 16.7%
Death number(piece) ([2]; 0.75 mg/ml atomization inspired, day 1): 0 piece
Death number(piece) ([2]; 0.75 mg/ml atomization inspired, day 2): 0 piece
Death number(piece) ([2]; 0.75 mg/ml atomization inspired, day 3): 4 piece
Death number(piece) ([2]; 0.75 mg/ml atomization inspired, day 4): 4 piece
Death number(piece) ([2]; 0.75 mg/ml atomization inspired, day 5): 3 piece
Death number(piece) ([2]; 0.75 mg/ml atomization inspired, day 6): 4 piece
Death number(piece) ([2]; 0.75 mg/ml atomization inspired, day 7): 4 piece
Death number(piece) ([2]; 0.75 mg/ml atomization inspired, day 8): 2 piece
Death number(piece) ([2]; 0.75 mg/ml atomization inspired, day 9): 3 piece
Death number(piece) ([2]; 0.75 mg/ml atomization inspired, day 10): 1 piece
Death number(piece) ([2]; 0.75 mg/ml atomization inspired, day 11): 0 piece
Death number(piece) ([2]; 0.75 mg/ml atomization inspired, day 12): 0 piece
Death number(piece) ([2]; 0.75 mg/ml atomization inspired, day 13): 0 piece
Death number(piece) ([2]; 0.75 mg/ml atomization inspired, day 14): 0 piece
survival elevation rate (%) [2, 3]: 0.00%
average survival day (day, x ± s) ([2]; 1.5 mg/ml atomization inspired): 8.70 ± 4.65 days
accumulative survival number ([2]; 1.5 mg/ml atomization inspired): 12
survival rate (%) ([2]; 1.5 mg/ml atomization inspired): 40.0%
Death number(piece) ([2]; 1.5 mg/ml atomization inspired, day 1): 0 piece
Death number(piece) ([2]; 1.5 mg/ml atomization inspired, day 2): 0 piece
Death number(piece) ([2]; 1.5 mg/ml atomization inspired, day 3): 4 piece
Death number(piece) ([2]; 1.5 mg/ml atomization inspired, day 4): 4 piece
Death number(piece) ([2]; 1.5 mg/ml atomization inspired, day 5): 3 piece
Death number(piece) ([2]; 1.5 mg/ml atomization inspired, day 6): 4 piece
Death number(piece) ([2]; 1.5 mg/ml atomization inspired, day 7): 0 piece
Death number(piece) ([2]; 1.5 mg/ml atomization inspired, day 8): 2 piece
Death number(piece) ([2]; 1.5 mg/ml atomization inspired, day 9): 0 piece
Death number(piece) ([2]; 1.5 mg/ml atomization inspired, day 10): 1 piece
Death number(piece) ([2]; 1.5 mg/ml atomization inspired, day 11): 0 piece
Death number(piece) ([2]; 1.5 mg/ml atomization inspired, day 12): 0 piece
Death number(piece) ([2]; 1.5 mg/ml atomization inspired, day 13): 0 piece
Death number(piece) ([2]; 1.5 mg/ml atomization inspired, day 14): 0 piece
survival elevation rate (%) ([2]; 1.5 mg/ml atomization inspired): 23.3%
average survival day (day, x ± s) ([2]; 3 mg/ml atomization inspired): 11.20 ± 3.53 days
accumulative survival number ([2]; 3 mg/ml atomization inspired): 18
survival rate (%) ([2]; 3 mg/ml atomization inspired): 60.0%
Death number(piece) ([2]; 3 mg/ml atomization inspired, day 1): 0 piece
Death number(piece) ([2]; 3 mg/ml atomization inspired, day 2): 0 piece
Death number(piece) ([2]; 3 mg/ml atomization inspired, day 3): 0 piece
Death number(piece) ([2]; 3 mg/ml atomization inspired, day 4): 0 piece
Death number(piece) ([2]; 3 mg/ml atomization inspired, day 5): 0 piece
Death number(piece) ([2]; 3 mg/ml atomization inspired, day 6): 4 piece
Death number(piece) ([2]; 3 mg/ml atomization inspired, day 7): 4 piece
Death number(piece) ([2]; 3 mg/ml atomization inspired, day 8): 4 piece
Death number(piece) ([2]; 3 mg/ml atomization inspired, day 9): 0 piece
Death number(piece) ([2]; 3 mg/ml atomization inspired, day 10): 0 piece
Death number(piece) ([2]; 3 mg/ml atomization inspired, day 11): 0 piece
Death number(piece) ([2]; 3 mg/ml atomization inspired, day 12): 0 piece
Death number(piece) ([2]; 3 mg/ml atomization inspired, day 13): 0 piece
Death number(piece) ([2]; 3 mg/ml atomization inspired, day 14): 0 piece
survival elevation rate (%) ([2]; 3 mg/ml atomization inspired): 43.3%
average survival day (day, x ± s) ([2]; 6 mg/ml atomization inspired): 11.60 ± 3.48 days
accumulative survival number ([2]; 6 mg/ml atomization inspired): 20
survival rate (%) ([2]; 6 mg/ml atomization inspired): 66.7%
Death number(piece) ([2]; 6 mg/ml atomization inspired, day 1): 0 piece
Death number(piece) ([2]; 6 mg/ml atomization inspired, day 2): 0 piece
Death number(piece) ([2]; 6 mg/ml atomization inspired, day 3): 0 piece
Death number(piece) ([2]; 6 mg/ml atomization inspired, day 4): 0 piece
Death number(piece) ([2]; 6 mg/ml atomization inspired, day 5): 0 piece
Death number(piece) ([2]; 6 mg/ml atomization inspired, day 6): 4 piece
Death number(piece) ([2]; 6 mg/ml atomization inspired, day 7): 4 piece
Death number(piece) ([2]; 6 mg/ml atomization inspired, day 8): 2 piece
Death number(piece) ([2]; 6 mg/ml atomization inspired, day 9): 0 piece
Death number(piece) ([2]; 6 mg/ml atomization inspired, day 10): 0 piece
Death number(piece) ([2]; 6 mg/ml atomization inspired, day 11): 0 piece
Death number(piece) ([2]; 6 mg/ml atomization inspired, day 12): 0 piece
Death number(piece) ([2]; 6 mg/ml atomization inspired, day 13): 0 piece
Death number(piece) ([2]; 6 mg/ml atomization inspired, day 14): 0 piece
survival elevation rate (%) ([2]; 6 mg/ml atomization inspired): 50.0%
The 4th day (bacterial number, head incomplete) ([2]; dose 1.5): 3.4 ± 0.25
The 5th day (bacterial number, head incomplete) ([2]; dose 1.5, the 5th day): 64.40 ± 15.69
The 4th day (bacterial number, head incomplete) ([2]; dose 3): 2.5 ± 0.22
The 5th day (bacterial number, head incomplete) ([2]; dose 3, the 5th day): 60.70 ± 13.98
The 4th day (bacterial number, head incomplete) ([2]; dose 6): 2.2 ± 0.12
The 5th day (bacterial number, head incomplete) ([2]; dose 6, the 5th day): 57.60 ± 15.37
bacterial number ([2]; atomization inspired 1.5, 0 day): 350 ± 21.5 CFU/mL
bacterial number ([2]; atomization inspired 1.5, the 1th day): 247.10 ± 21.31 CFU/mL
bacterial number ([2]; atomization inspired 1.5, the 3rd day): 146.90 ± 13.55 CFU/mL
bacterial number ([2]; atomization inspired 1.5, the 5th day): 64.40 ± 15.69 CFU/mL
bacterial number ([2]; atomization inspired 1.5, the 14th day): 28.0 ± 2.60 CFU/mL
bacterial number ([2]; atomization inspired 3.0, 0 day): 350 ± 21.5 CFU/mL
bacterial number ([2]; atomization inspired 3.0, the 1th day): 246.30 ± 19.03 CFU/mL
bacterial number ([2]; atomization inspired 3.0, the 3rd day): 141.10 ± 18.54 CFU/mL
bacterial number ([2]; atomization inspired 3.0, the 5th day): 60.70 ± 13.98 CFU/mL
bacterial number ([2]; atomization inspired 3.0, the 14th day): 24.0 ± 2.00 CFU/mL
bacterial number ([2]; atomization inspired 6.0, 0 day): 350 ± 21.5 CFU/mL
bacterial number ([2]; atomization inspired 6.0, the 3rd day): 134.60 ± 13.58 CFU/mL
bacterial number ([2]; atomization inspired 6.0, the 5th day): 57.60 ± 15.37 CFU/mL
bacterial number ([2]; atomization inspired 6.0, the 14th day): 10.0 ± 8.00 CFU/mL
95% feasible limits of ED50 ([2]; mice survival over 14 days, Bliss method): 1.76 to 4.02 mg/mL
ED50 (median effective dose) ([2]; mice survival over 14 days, Bliss method, atomization inspired): 2.55 mg/mL (≈ 3.41 mM)
